Experimental data taken from patent publication US20250144091A1, “SITAGLIPTIN PREPARATION AND METHOD OF STORAGE THEREOF” (SAWAI PHARMACEUTICAL CO., LTD., priority 2023, published 2025).

Key:
[1] = Acceptable daily intake of NTTP (EMA/FDA); conditions: 37 ng corresponds to 0.088 ppm
Experimental: Recently, the European Medicines Agency (EMA) and the U.S. Food and Drug Administration (FDA) have announced that 7-Nitroso-3-(trifluoromethyl)-5,6,7,8-tetrahydro[1,2,4]triazolo-[4,3-a]pyrazine (NTTP), which is classified into nitrosamines, has been detected in a sitagliptin preparation. Nitrosamines are known to be potentially carcinogenic, and an acceptable intake of NTTP is set at 37 ng daily. NTTP is produced by the reaction of 3-(trifluoromethyl) 5,6,7,8-tetrahydro[1,2,4]triazolo-[4,3-a]pyrazine, which is produced by hydrolysis of sitagliptin, with nitrogen oxides such as nitrous acid. Nitrogen oxides are contained in small amounts in additives, as well as in the water and air used in the preparation process. Although the production pathway of NTTP is expected as described above, its reactivity is unknown. Therefore, a specific method for reducing the amount of NTTP in a preparation was completely unknown.
Generally, the criterion for reporting the amount of related substances in a preparation is 1,000 ppm, but it is a very difficult task to suppress the production of NTTP in a sitagliptin preparation because a daily acceptable intake of NTTP of 37 ng corresponds to 0.088 ppm.

[2] = set limit for nitrosamine in sitagliptin preparation; cited from earlier work

Question: For `O=NN1CCn2c(nnc2C(F)(F)F)C1` [NTTP, 7-Nitroso-3-(trifluoromethyl)-5,6,7,8-tetrahydro[1,2,4]triazolo-[4,3-a]pyrazine], which “daily acceptable intake of NTTP expressed as content in the preparation” value [1] is on record?
Answer: 0.088 ppm

Question: And the “acceptable intake of NTTP” value [2]?
Answer: 37 ng daily
